Measurements: PubChem BioAssay AID256 (DTP/NCI, 2004)
“And” between values parts separate entries of the source, which are not always exact repeats. Identical values can stand only once. Toxic doses and inconclusive results are not listed.

Tested on: CD2F1 mice, L1210 leukemia ip, survival T/C
Assay: NCI In Vivo Anticancer Drug Screen. Data for tumor model L1210 Leukemia (intraperitoneal) in CD2F1 (CDF1) mice
Conditions: higher = longer survival
Procedure, shortened: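 Antitumor effect is scored in animals hosting a serially transplanted tumor. Values compare compound-dosed animals against vehicle-only controls as a simple quotient.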

[1] = endpoint: mean survival time, dose: 75.0 mg/kg/injection, schedule: Q01DX001 (ip), vehicle: saline
[2] = endpoint: mean survival time, dose: 150.0 mg/kg/injection, schedule: Q01DX001 (ip), vehicle: saline
[3] = endpoint: mean survival time, dose: 50.0 mg/kg/injection, schedule: Q01DX009 (ip), vehicle: saline with Tween-80
[4] = endpoint: mean survival time, dose: 100.0 mg/kg/injection, schedule: Q01DX001 (ip), vehicle: saline with Tween-80
[5] = endpoint: mean survival time, dose: 100.0 mg/kg/injection, schedule: Q01DX009 (ip), vehicle: saline with Tween-80
[6] = endpoint: mean survival time, dose: 200.0 mg/kg/injection, schedule: Q01DX001 (ip), vehicle: saline with Tween-80
[7] = endpoint: mean survival time, dose: 400.0 mg/kg/injection, schedule: Q01DX001 (ip), vehicle: saline with Tween-80
[8] = endpoint: mean survival time, dose: 25.0 mg/kg/injection, schedule: Q01DX009 (ip), vehicle: saline
[9] = endpoint: mean survival time, dose: 50.0 mg/kg/injection, schedule: Q04DX002 (ip), vehicle: saline with Tween-80
[10] = endpoint: mean survival time, dose: 1.56 mg/kg/injection, schedule: Q01DX009 (ip), vehicle: saline
[11] = endpoint: mean survival time, dose: 3.12 mg/kg/injection, schedule: Q01DX009 (ip), vehicle: saline
[12] = endpoint: mean survival time, dose: 6.25 mg/kg/injection, schedule: Q01DX009 (ip), vehicle: saline
[13] = endpoint: mean survival time, dose: 12.5 mg/kg/injection, schedule: Q01DX009 (ip), vehicle: saline
[14] = endpoint: mean survival time, dose: 100.0 mg/kg/injection, schedule: Q04DX003 (ip), vehicle: saline with Tween-80
[15] = endpoint: mean survival time, dose: 200.0 mg/kg/injection, schedule: Q04DX003 (ip), vehicle: saline with Tween-80
[16] = endpoint: mean survival time, dose: 400.0 mg/kg/injection, schedule: Q04DX003 (ip), vehicle: saline with Tween-80

SMILES: O=NN(CCF)C(=O)NC1CCCCC1
- T/C (endpoint: median survival time, dose: 2.5 mg/kg/injection, schedule: Q01DX001 (ip), vehicle: saline): 101 % of control
- T/C (endpoint: median survival time, dose: 2.5 mg/kg/injection, schedule: Q04DX002 (ip), vehicle: saline): 93 % of control
- T/C (endpoint: median survival time, dose: 5.0 mg/kg/injection, schedule: Q01DX001 (ip), vehicle: saline): 101 % of control
- T/C (endpoint: median survival time, dose: 5.0 mg/kg/injection, schedule: Q04DX002 (ip), vehicle: saline): 106 % of control
- T/C (endpoint: median survival time, dose: 10.0 mg/kg/injection, schedule: Q01DX001 (ip), vehicle: saline): 102 % of control
- T/C (endpoint: median survival time, dose: 10.0 mg/kg/injection, schedule: Q04DX002 (ip), vehicle: saline): 120 % of control and 223 % of control
- T/C (endpoint: median survival time, dose: 20.0 mg/kg/injection, schedule: Q01DX001 (ip), vehicle: saline): 103 % of control
- T/C (endpoint: median survival time, dose: 20.0 mg/kg/injection, schedule: Q04DX002 (ip), vehicle: saline): 365 % of control
- T/C (endpoint: median survival time, dose: 40.0 mg/kg/injection, schedule: Q01DX001 (ip), vehicle: saline): 120 % of control
- T/C (endpoint: median survival time, dose: 40.0 mg/kg/injection, schedule: Q04DX002 (ip), vehicle: saline): 216 % of control and 365 % of control
- T/C (endpoint: median survival time, dose: 80.0 mg/kg/injection, schedule: Q01DX001 (ip), vehicle: saline): 168 % of control
- T/C (endpoint: median survival time, dose: 80.0 mg/kg/injection, schedule: Q04DX002 (ip), vehicle: saline): 207 % of control and 361 % of control

SMILES: c1ccc(-c2ccccc2NC2=NCCO2)cc1
- T/C (endpoint: mean survival time, dose: 12.5 mg/kg/injection, schedule: Q04DX003 (ip), vehicle: saline): 94 % of control
- T/C (endpoint: mean survival time, dose: 25.0 mg/kg/injection, schedule: Q04DX003 (ip), vehicle: saline): 94 % of control
- T/C (endpoint: mean survival time, dose: 50.0 mg/kg/injection, schedule: Q04DX003 (ip), vehicle: saline): 90 % of control

SMILES: CC(N)c1ccccc1 (stereo not given)
- T/C (endpoint: mean survival time, dose: 37.5 mg/kg/injection, schedule: Q04DX003 (ip), vehicle: saline): 98 % of control
- T/C [1]: 96 % of control
- T/C (endpoint: mean survival time, dose: 75.0 mg/kg/injection, schedule: Q04DX003 (ip), vehicle: saline): 100 % of control
- T/C [2]: 100 % of control
- T/C (endpoint: mean survival time, dose: 150.0 mg/kg/injection, schedule: Q04DX003 (ip), vehicle: saline): 100 % of control
- T/C (endpoint: mean survival time, dose: 300.0 mg/kg/injection, schedule: Q01DX001 (ip), vehicle: saline): 106 % of control

SMILES: O=[N+]([O-])c1cc(Cl)cc2c1-c1ccc(Cl)cc1C2Br (stereo not given)
- T/C (endpoint: mean survival time, dose: 50.0 mg/kg/injection, schedule: Q01DX001 (ip), vehicle: carboxymethylcellulose (CMC)): 104 % of control
- T/C (endpoint: mean survival time, dose: 100.0 mg/kg/injection, schedule: Q01DX001 (ip), vehicle: carboxymethylcellulose (CMC)): 98 % of control
- T/C (endpoint: mean survival time, dose: 200.0 mg/kg/injection, schedule: Q01DX001 (ip), vehicle: carboxymethylcellulose (CMC)): 104 % of control
- T/C (endpoint: mean survival time, dose: 400.0 mg/kg/injection, schedule: Q01DX001 (ip), vehicle: carboxymethylcellulose (CMC)): 104 % of control

SMILES: C[CH2][Sn]1([CH2]C)[O]C2C(CO)OC(n3cnc4c(=O)[nH]c(N)nc43)C2[O]1 (stereo not given)
- T/C (endpoint: mean survival time, dose: 0.78 mg/kg/injection, schedule: Q01DX005 (ip), vehicle: other): 100 % of control
- T/C (endpoint: mean survival time, dose: 1.56 mg/kg/injection, schedule: Q01DX005 (ip), vehicle: other): 100 % of control
- T/C (endpoint: mean survival time, dose: 3.13 mg/kg/injection, schedule: Q01DX005 (ip), vehicle: other): 104 % of control
- T/C (endpoint: mean survival time, dose: 6.25 mg/kg/injection, schedule: Q01DX005 (ip), vehicle: other): 102 % of control
- T/C (endpoint: mean survival time, dose: 12.5 mg/kg/injection, schedule: Q01DX005 (ip), vehicle: other): 96 % of control and 110 % of control

SMILES: O=C(Oc1ccccc1)c1ccccc1O
- T/C (endpoint: mean survival time, dose: 25.0 mg/kg/injection, schedule: Q01DX009 (ip), vehicle: saline with Tween-80): 105 % of control
- T/C [3]: 109 % of control
- T/C [4]: 101 % of control
- T/C [5]: 105 % of control
- T/C [6]: 89 % of control
- T/C [7]: 95 % of control

SMILES: CC1(C)N=C(N)N=C(N)N1c1cccc(CCCCc2ccc(S(=O)(=O)F)cc2)c1
- T/C [8]: 105 % of control

SMILES: CCC1(O)C(=O)OCc2c1cc1n(c2=O)Cc2cc3ccc(C(=O)OC)cc3nc2-1 (stereo not given)
- T/C (endpoint: median survival time, dose: 10.0 mg/kg/injection, schedule: Q04DX002 (ip), vehicle: saline with Tween-80): 107 % of control
- T/C (endpoint: median survival time, dose: 20.0 mg/kg/injection, schedule: Q04DX002 (ip), vehicle: saline with Tween-80): 100 % of control
- T/C (endpoint: median survival time, dose: 40.0 mg/kg/injection, schedule: Q04DX002 (ip), vehicle: saline with Tween-80): 106 % of control
- T/C (endpoint: median survival time, dose: 80.0 mg/kg/injection, schedule: Q04DX002 (ip), vehicle: saline with Tween-80): 107 % of control

SMILES: CNC(=O)O/N=C1\CCCc2sccc21
- T/C [4]: 110 % of control
- T/C [6]: 110 % of control
- T/C [7]: 101 % of control

SMILES: CN(Cc1ccccc1)CC1(CO)CC=CCC1 (stereo not given)
- T/C [1]: 97 % of control
- T/C [2]: 100 % of control

SMILES: CCCCCCCCCCCC1CCCC(C)N1 (stereo not given)
- T/C [9]: 98 % of control

SMILES: Clc1ccc(C[n+]2ccccc2)cc1Cl
- T/C (endpoint: mean survival time, dose: 5.0 mg/kg/injection, schedule: Q01DX009 (ip), vehicle: saline): 98 % of control
- T/C (endpoint: mean survival time, dose: 10.0 mg/kg/injection, schedule: Q01DX009 (ip), vehicle: saline): 104 % of control
- T/C (endpoint: mean survival time, dose: 10.0 mg/kg/injection, schedule: Q04DX003 (ip), vehicle: saline): 100 % of control
- T/C (endpoint: mean survival time, dose: 20.0 mg/kg/injection, schedule: Q01DX009 (ip), vehicle: saline): 98 % of control
- T/C (endpoint: mean survival time, dose: 20.0 mg/kg/injection, schedule: Q04DX003 (ip), vehicle: saline): 94 % of control

SMILES: C[n+]1c(-c2cccc3ccccc23)c2cc(N)ccc2c2ccccc21
- T/C (endpoint: mean survival time, dose: 0.78 mg/kg/injection, schedule: Q01DX009 (ip), vehicle: water): 106 % of control
- T/C [10]: 108 % of control
- T/C (endpoint: mean survival time, dose: 1.56 mg/kg/injection, schedule: Q01DX009 (ip), vehicle: water): 103 % of control
- T/C [11]: 118 % of control
- T/C (endpoint: mean survival time, dose: 3.13 mg/kg/injection, schedule: Q01DX009 (ip), vehicle: water): 111 % of control
- T/C (endpoint: mean survival time, dose: 3.5 mg/kg/injection, schedule: Q01DX009 (ip), vehicle: water): 104 % of control
- T/C (endpoint: mean survival time, dose: 5.3 mg/kg/injection, schedule: Q01DX009 (ip), vehicle: water): 106 % of control
- T/C [12]: 106 % of control
- T/C (endpoint: mean survival time, dose: 6.25 mg/kg/injection, schedule: Q01DX009 (ip), vehicle: water): 97 % of control and 110 % of control
- T/C (endpoint: mean survival time, dose: 8.0 mg/kg/injection, schedule: Q01DX009 (ip), vehicle: water): 114 % of control
- T/C (endpoint: mean survival time, dose: 12.0 mg/kg/injection, schedule: Q01DX009 (ip), vehicle: water): 121 % of control
- T/C [13]: 116 % of control
- T/C (endpoint: mean survival time, dose: 12.5 mg/kg/injection, schedule: Q01DX009 (ip), vehicle: water): 119 % of control and 122 % of control
- T/C (endpoint: mean survival time, dose: 18.0 mg/kg/injection, schedule: Q01DX009 (ip), vehicle: water): 112 % of control
- T/C [8]: 93 % of control

SMILES: CC1CCCCN1C(=O)Nc1c(Cl)cccc1Cl (stereo not given)
- T/C [3]: 98 % of control
- T/C [5]: 105 % of control
- T/C (endpoint: mean survival time, dose: 200.0 mg/kg/injection, schedule: Q01DX009 (ip), vehicle: saline with Tween-80): 94 % of control

SMILES: C[n+]1ccccc1NC(=O)c1ccccc1
- T/C [14]: 98 % of control
- T/C [15]: 95 % of control
- T/C [16]: 88 % of control

SMILES: FC(F)(F)c1ccc2c(c1)N(CCCN1CCN(CCC3OCCCO3)CC1)c1ccccc1S2
- T/C (endpoint: mean survival time, dose: 0.78 mg/kg/injection, schedule: Q01DX009 (ip), vehicle: saline): 96 % of control
- T/C [10]: 96 % of control
- T/C [11]: 94 % of control
- T/C [12]: 96 % of control
- T/C [13]: 103 % of control

SMILES: O=C=Nc1ccc(Cl)c(Cl)c1 (tested in a mixture with another compound)
- T/C [9]: 97 % of control
- T/C (endpoint: mean survival time, dose: 100.0 mg/kg/injection, schedule: Q04DX002 (ip), vehicle: saline with Tween-80): 108 % of control
- T/C (endpoint: mean survival time, dose: 200.0 mg/kg/injection, schedule: Q04DX002 (ip), vehicle: saline with Tween-80): 93 % of control
- T/C (endpoint: mean survival time, dose: 400.0 mg/kg/injection, schedule: Q04DX002 (ip), vehicle: saline with Tween-80): 89 % of control

SMILES: N=c1nc2c3ccccc3nnn2c2ccccc12
- T/C (endpoint: mean survival time, dose: 50.0 mg/kg/injection, schedule: Q01DX001 (ip), vehicle: Klucel (hydroxypropylcellulose) (HPC)): 101 % of control
- T/C (endpoint: mean survival time, dose: 100.0 mg/kg/injection, schedule: Q01DX001 (ip), vehicle: Klucel (hydroxypropylcellulose) (HPC)): 112 % of control

SMILES: O=C(NCCCCOc1ccc([N+](=O)[O-])cc1Cl)NC1CCCCC1
- T/C [14]: 102 % of control
- T/C [15]: 94 % of control
- T/C [16]: 91 % of control

SMILES: CC(C)C(=O)Nc1cccc(Cl)c1
- T/C [14]: 97 % of control
- T/C [15]: 97 % of control
- T/C [16]: 94 % of control
